The numbers were not newly measured in patent US5064812A, “Metal complexes of N-acetyl-glucosaminyl-N-acetyl-muramoyl-L-alanyl-D-isoglutaminyl-(L)-mes o-diamino-pimelyl-(D-amide)-(L)-D-alanyl-D-alanine and their use in pharmaceuticals” (Sour Pliva, priority 1986, dated 1991), which cites them from elsewhere.

The conditions of data set [1]: prior art literature.
For data set [2] the following is noted: prior art literature. This is another data set of the same source.

With “N-acetyl-glucosaminyl-N-acetyl-muramoyl-L-alanyl-D-isoglutaminyl-(L)-meso- diamino-pimelyl-(D-amide)-(L)-D-alanyl-D-alanine [PMG]”, the antimetastatic activity entry in data set [1] was “antimetastatic activity”. Also, the immunostimulating activity entry in data set [2] was “significant immunostimulating”.
